What was measured:
[1] = Liquid, Closed cell (Static) method
[2] = excess molar enthalpy (molar enthalpy of mixing); xn = mol fraction of the nth substance listed; conditions: 323.15 K, 101 kPa, Liquid, Flow calorimetry

CCCC(=O)O [butanoic acid]
[1]
Conditions | vapor or sublimation pressure [kPa]
273.15 K | 0.0137
283.15 K | 0.0324
293.15 K | 0.0725
293.29 K | 0.072
298.15 K | 0.1063
298.25 K | 0.1052
303.15 K | 0.1541
303.28 K | 0.1545
313.15 K | 0.3128
313.22 K | 0.3155
323.15 K | 0.6084
323.2 K | 0.6183
333.15 K | 1.138
333.18 K | 1.153
343.15 K | 2.055
343.18 K | 2.073
353.1 K | 3.582
353.15 K | 3.593
363.08 K | 5.973
363.15 K | 6.095

CCCC(=O)O [butanoic acid] + Cc1ccccc1
[2]
Conditions | excess molar enthalpy [kcal/mol]
x1 = 0.0289 | 0.00659
x1 = 0.0576 | 0.00663
x1 = 0.1144 | 0.00368
x1 = 0.1702 | -0.000361
x1 = 0.2251 | -0.00433
x1 = 0.2792 | -0.00731
x1 = 0.3325 | -0.0104
x1 = 0.3849 | -0.0129
x1 = 0.4366 | -0.0149
x1 = 0.4874 | -0.0163
x1 = 0.5375 | -0.0174
x1 = 0.5869 | -0.0176
x1 = 0.6355 | -0.0169
x1 = 0.6834 | -0.0161
x1 = 0.7306 | -0.0147
x1 = 0.7771 | -0.013
x1 = 0.823 | -0.0107
x1 = 0.8682 | -0.00798
x1 = 0.9127 | -0.00545
x1 = 0.9567 | -0.00251
x1 = 0.9784 | -0.00114

Cc1ccccc1 [toluene]
[1]
Conditions | vapor or sublimation pressure [kPa]
253.83 K | 0.2392
263.64 K | 0.4837
273.15 K | 0.9082
273.47 K | 0.9254
283.15 K | 1.666
283.32 K | 1.68
293.15 K | 2.911
293.24 K | 2.925
293.26 K | 2.925
298.15 K | 3.785
298.25 K | 3.803
303.15 K | 4.872
303.23 K | 4.894
313.15 K | 7.848
313.19 K | 7.872
313.22 K | 7.874
323.15 K | 12.22
323.22 K | 12.24
333.15 K | 18.45
333.2 K | 18.57
343.15 K | 27.1
343.16 K | 27.2
353.13 K | 38.84
353.15 K | 38.84
363.08 K | 54.13
363.15 K | 54.42
